Numbers after ± are expanded uncertainties.
Assay: xn = mol fraction of the nth substance listed
Settings: Liquid; for speed of sound: Pulse-echo method

CCCCCCCCCCCC [dodecane] + CCCCCCC
Settings | mass density [kg/m3] | speed of sound [m/s]
303.14 K, 30390 kPa, x2 = 0 | – | 1423.8 ± 2.4
303.14 K, 30390 kPa, x2 = 0.1014 | – | 1415.2 ± 2.4
303.14 K, 30390 kPa, x2 = 0.4999 | – | 1376.6 ± 2.4
303.14 K, 30390 kPa, x2 = 0.5003 | – | 1376.5 ± 2.4
303.14 K, 45590 kPa, x2 = 0 | – | 1491.4 ± 2.4
303.14 K, 45590 kPa, x2 = 0.1014 | – | 1483.5 ± 2.4
303.14 K, 45590 kPa, x2 = 0.3007 | – | 1466.1 ± 2.4
303.14 K, 45590 kPa, x2 = 0.4999 | – | 1448 ± 2.4
303.14 K, 45590 kPa, x2 = 0.5003 | – | 1448.1 ± 2.4
303.14 K, 60790 kPa, x2 = 0 | – | 1553.1 ± 2.5
303.14 K, 60790 kPa, x2 = 0.1014 | – | 1545.7 ± 2.5
303.14 K, 60790 kPa, x2 = 0.4999 | – | 1512.9 ± 2.5
303.14 K, 60790 kPa, x2 = 0.5003 | – | 1513 ± 2.5
303.14 K, 60790 kPa, x2 = 0.7007 | – | 1491.3 ± 2.5
303.14 K, 75990 kPa, x2 = 0 | – | 1610.9 ± 2.5
303.14 K, 75990 kPa, x2 = 0.1014 | – | 1603.8 ± 2.5
303.14 K, 75990 kPa, x2 = 0.4999 | – | 1572.4 ± 2.5
303.14 K, 75990 kPa, x2 = 0.5003 | – | 1572.6 ± 2.5
303.14 K, 75990 kPa, x2 = 0.7007 | – | 1552 ± 2.5
303.14 K, 91180 kPa, x2 = 0 | – | 1664.1 ± 2.5
303.14 K, 91180 kPa, x2 = 0.1014 | – | 1657.4 ± 2.5
303.14 K, 91180 kPa, x2 = 0.3007 | – | 1642.8 ± 2.5
303.14 K, 91180 kPa, x2 = 0.4999 | – | 1627.9 ± 2.6
303.14 K, 91180 kPa, x2 = 0.5003 | – | 1628.3 ± 2.6
303.14 K, 91180 kPa, x2 = 0.7007 | – | 1609.1 ± 2.6
303.14 K, 101320 kPa, x2 = 0 | – | 1697.4 ± 2.6
303.14 K, 101320 kPa, x2 = 0.3007 | – | 1677 ± 2.6
303.14 K, 101320 kPa, x2 = 0.4999 | – | 1662.6 ± 2.6
303.14 K, 101320 kPa, x2 = 0.7007 | – | 1644.6 ± 2.6
303.15 K, 101 kPa, x2 = 0 | 741.636 ± 0.64 | 1259.3 ± 1.6
303.15 K, 101 kPa, x2 = 0.0991 | 737.456 ± 0.64 | –
303.15 K, 101 kPa, x2 = 0.2008 | 732.789 ± 0.65 | –
303.15 K, 101 kPa, x2 = 0.2998 | 727.833 ± 0.66 | –
303.15 K, 101 kPa, x2 = 0.3002 | – | 1226.7 ± 1.6
303.15 K, 101 kPa, x2 = 0.7002 | – | 1168.2 ± 1.6
303.15 K, 101 kPa, x2 = 0.7005 | 702.52 ± 0.69 | –
303.15 K, 101 kPa, x2 = 0.7995 | 694.549 ± 0.7 | –
303.15 K, 101 kPa, x2 = 0.8486 | 690.238 ± 0.7 | –
303.15 K, 101 kPa, x2 = 0.8988 | 685.588 ± 0.71 | –
303.15 K, 101 kPa, x2 = 0.9498 | 680.563 ± 0.72 | –
303.15 K, 15200 kPa, x2 = 0 | – | 1348.5 ± 2.4
303.15 K, 15200 kPa, x2 = 0.3007 | – | 1317.9 ± 2.4
303.15 K, 15200 kPa, x2 = 0.5003 | – | 1296.5 ± 2.4
303.15 K, 15200 kPa, x2 = 0.7007 | – | 1268.1 ± 2.4
303.15 K, 30390 kPa, x2 = 0.3007 | – | 1396 ± 2.4
303.15 K, 30390 kPa, x2 = 0.7007 | – | 1351.3 ± 2.4
303.15 K, 30390 kPa, x2 = 0.8496 | – | 1331.4 ± 2.4
303.15 K, 45590 kPa, x2 = 0.7007 | – | 1425 ± 2.4
303.15 K, 60790 kPa, x2 = 0.3007 | – | 1529.4 ± 2.5
303.15 K, 75990 kPa, x2 = 0.3007 | – | 1588.1 ± 2.5
303.15 K, 75990 kPa, x2 = 0.8496 | – | 1536.5 ± 2.5
303.15 K, 91180 kPa, x2 = 0.8496 | – | 1594.2 ± 2.6
303.15 K, 101320 kPa, x2 = 0.8496 | – | 1630.5 ± 2.6
303.16 K, 101 kPa, x2 = 0.1007 | – | 1249.4 ± 1.6
303.16 K, 101 kPa, x2 = 0.3996 | 722.389 ± 0.66 | 1213.9 ± 1.6
303.16 K, 101 kPa, x2 = 0.5 | 716.383 ± 0.67 | –
303.16 K, 101 kPa, x2 = 0.5002 | – | 1199.8 ± 1.6
303.16 K, 101 kPa, x2 = 0.6 | 709.824 ± 0.68 | –
303.16 K, 101 kPa, x2 = 0.8 | – | 1150.3 ± 1.6
303.16 K, 15200 kPa, x2 = 0.8496 | – | 1245.8 ± 2.4
303.16 K, 45590 kPa, x2 = 0.8496 | – | 1406.8 ± 2.4
303.16 K, 60790 kPa, x2 = 0.8496 | – | 1474.8 ± 2.5

— the NIST ThermoML archive (doi:10.1016/j.jct.2008.05.014)
